Test results from patent US20070049514A1, “Resonance modulator for diagnosis and therapy” (priority 2003, published 2007).
Where “and” joins values, the source holds several entries; their conditions need not be identical. Equal entries are not always repeated. Entries after “also recorded” stand apart in the source; their conditions may differ.

Key:
HeLa cancer cells (HPV+) = assay: HeLa cancer cells incubated with A-007 crystals; type: cell-based; details: incubated with crystals for 24 hours
Source text: Then through cell membrane chemical interphase and modulation of the PTP receptors the cells down regulate, darken with pyknotic changes associated with DNA agglutination resulting in death (lower clumped dark staining cells). The attraction that the crystals have for the cells is associated with intramolecular resonance and associated magnetic patterns described in FIGS. 3 and 4.

[1] = system: vaginal cancer / cervical cancer; assay: A-007 0.25% gel intravaginally, cancer response and toxicity; details: per patient
[2] = system: anal squamous cell cancer; assay: A-007 0.25% gel intra-anally, cancer response and toxicity; type: in vivo, human; details: per patient
[3] = system: Cutaneous Metastases (cancer lesions); assay: Phase I/II trials, topical A-007 0.25% gel on cutaneous metastases; type: in vivo, human
[4] = system: T-lymphocytes (CD markers); assay: A-007 0.25% gel intravaginally, T-cell profile (tissue/blood); type: in vivo, Humans; design: key: NC: no change; details: per patient; intravaginal gel
[5] = as seen by crystallography (Klein et al. 1993); cited from earlier work
lymphocytes in culture [6] = assay: Lymphocyte blastogenesis, blasts per high powered field; type: cell-based; details: number of blasts per high powered field
Experimental: (§1) Once candidates have been selected as potential resonance modulators, they can be easily assayed to determine whether they induce lymphocyte blastogenesis and activate lymphocytes. Such an assay is found in Morgan et al., Anticancer Research 13:1763-1768 (1993), which is incorporated by reference. See also Janossy et al., Clin. Exp. Immunol. 14:581-596 (1973). Briefly, uptake of [^3]thymidine was measured for lymphocytes in culture. Lymphocytes were cultured in RPMI-1640 tissue culture medium supplemented with 10% fetal bovine serum (FBS). Following stimulation with the resonance modulator, tritiated thymidine (2-20 μCi/ml, specific activity 2 Ci/mmol) was added to the cells and incubated with them. The uptake of [^3]thymidine was stopped by the addition of cold 10% trichloroacetic acid after a selected period of time, and the radioactivity of the samples measured in a scintillation counter. The % lymphoblast was determined by counting the number of blasts per high powered field (hpf) while % activation was determined by uptake of the tritiated thymidine. The increase voltage was measured with an oscilloscope as in Example 7.

lymphocytes in culture [7] = assay: Lymphocyte activation, tritiated thymidine uptake; type: cell-based; details: uptake of tritiated thymidine
Experimental: as §1

CD45+ receptor = CD45+ receptor modulation in lymphocytes and dendritic cells; type: cell-based, human
Source text: CD45+ is expressed on dendritic cells, lymphocytes, monocytes, and leukocytes, as well as some neoplastic cells, as a protein tyrosine phosphatase (TP), which together with other members of the PTPs, are responsible for […] tyrosine residues. Blockade of the CD45+ receptor sites with anti-CD45 antibodies inhibits T-cell activation and prevents mitogen (lectin) activation of naïve T-cells. CD45+ receptor surfaces contain arginine, serine/threonine and cysteine moieties, which can bind to and/or transfer natural ligands to the surface of APCs, as well as hydrolyze tyrosyl phosphates. […] Different resonance states of A-007 are capable of interacting with different immune cells.

[8] = system: benign fibroblasts or healthy epithelial cells; assay: A-007 induced cell death in non-HPV cells; type: cell-based; details: cells not containing or transformed by HPV
[9] = Absorption and disposition of A-007 (blood detection, skin absorption, excretion)
[10] = system: T-lymphocytes (CD4+, CD3+, CD8+, CD45+) and CD11c+ dendritic cells in skin; assay: Histochemical assays of biopsies of human skin topically treated with A-007; type: in vivo
[11] = system: naive human lymphocytes (obtained from peripheral blood); assay: Aggregation of naive lymphocytes around an A-007 crystal in tissue culture; type: cell-based; details: 0.5 mg crystals in RPMI, one hour
Source text: The ability of an agent to induce aggregation of naïve lymphocytes in culture around a test agent is another factor to be considered in determining whether the agent is a resonance modulator suitable for use in the methods disclosed herein. The ability to induce aggregation within one hour is a particularly strong indication that the compound is suitable for further investigation. “Aggregation” refers to a substantial increase in the number of lymphocytes, such as an increase visible by microscopy, as in FIG. 5.

HPV = assay: A-007 0.25% gel intravaginally, HPV response (titers); type: in vivo, Humans; design: key: NC: no change; details: per patient, intravaginal gel
lymphoma = assay: A-007 gel on the skin of a patient with lymphoma; type: in vivo, human; details: 0.25% gel (0.5 g)
[12] = system: T-lymphocytes (CD markers); assay: A-007 0.25% gel intra-anally, T-cell profile (tissue/blood); type: in vivo, human; design: key: NC: no change; details: intra-anal gel
[13] = system: cervical early cancer-in-situ; assay: A-007 gel in cervical cancer-in-situ (single patient); type: in vivo, human; details: 0.25% gel (2 g) daily for 5 days
Source text: The responses are associated with increased organization of T-lymphocyte patterns and disappearance of cancer cells.

[14] = 53 people treated with topical 0.25% gel
[15] = Breast, 0.25% gel topically twice daily

With O=[N+]([O-])c1ccc(NN=C(c2ccc(O)cc2)c2ccc(O)cc2)c([N+](=O)[O-])c1 [Compound A-007, 4,4′-dihydroxybenzophenone-2,4-dinitrophenylhydrazone] the “effect on HeLa cancer cells” value (HeLa cancer cells (HPV+)) was “undergo necrobiosis and death; also recorded: undergo pyknosis (DNA agglutination and necrosis) and die”, the “Response (Cancer)” value ([1]; 2 g gel intravaginally daily for five days) was 75% and >75% and the Toxicity ([1]; intravaginal gel) was “None”. For the same compound, the “Response (Cancer)” value ([2]; gel intra-anally daily for five days) was 0% (4×) and 100%, the Toxicity ([2]; intra-anal gel) was “None” and the “complete responses (number)” value [3, 14] was “ten”. For the same compound, the objective remissions [3, 14] was 37%, the Duration ([3]; Angiosarcoma) was 0 wks and the “Response: number NR” value ([3]; Angiosarcoma) was 2 NR. The Toxicities ([3]; Angiosarcoma) was 0, the Duration ([3]; Anogenital) was 1.8+ yrs and the “Response: number CR” value ([3]; Anogenital) was 5. For the same compound, the “Response: number PR” value ([3]; Anogenital) was 2, the Toxicities ([3]; Anogenital) was 0 and the “Toxicities (number, skin, mild)” value ([3]; Breast) was 7 skin (mild). The “Response: number CR” value [3, 15] was 5, the “Response: number PR” value [3, 15] was 7 and the “Response: number stable” value [3, 15] was 6 stable. For the same compound, the Duration ([3]; H/N (Sq. Cell)) was 0 wks, the Toxicities ([3]; H/N (Sq. Cell)) was 0 and the Duration ([3]; KS (Kaposi's sarcoma)) was 11 wks. For the same compound, the “Response: number NR” value ([3]; KS (Kaposi's sarcoma)) was 2 PR, 2 NR, the “Response: number PR” value ([3]; KS (Kaposi's sarcoma)) was 2 PR, 2 NR and the Toxicities ([3]; KS (Kaposi's sarcoma)) was 0. The Duration ([3]; Melanoma) was 3-15 wks, the “Response: number NR” value ([3]; Melanoma) was 3 and the “Toxicities (number, skin, mild)” value ([3]; Melanoma) was 2 Skin (mild). The “Response: number PR” value ([3]; Melanoma, 0.25% gel topically twice daily) was 1, the Duration ([3]; NHL) was 3.5 yrs and the Toxicities ([3]; NHL) was 0. For the same compound, the “Response: number PR” value ([3]; NHL (non-Hodgkins' lymphoma)) was 1 PR, the “local or systemic toxicity” value ([3]; topical A-007) was “substantial absence of A-007 induced local or systemic toxicity” and the “T-Cell Profile (Tissue/Blood) CD8/4+” value [4] was “NC”. The hydrogen bond donors [5] was “greater than 5”, the “% Lymphoblast” value (lymphocytes in culture [6]) was 75% and the “% Activation” value (lymphocytes in culture [7]) was 100%. The “inhibition of CD45+” value (CD45+ receptor) was “does not inhibit or block CD45+”, the “CD45+ and CD11c+ receptors in human peripheral dendritic cells” value (CD45+ receptor; A-007-activated DCs) was “up-regulating both CD45+ and CD11c+ receptors” and the “A-007 induced cell death” value [8] was “not observed”. The excretion ([9]; administered to a human subject) was “excreted substantially unchanged”, the “absorption from/through the skin” value ([9]; applied to skin, animal and human studies) was “not absorbed from the skin; also recorded: substantially not absorbed through the skin” and the “absorption into the blood” value ([9]; in vivo) was “not absorbed into the blood”. The “detection of A-007 in blood” value ([9]; subjects treated with topical A-007) was “not been detected in the blood”, the “T-lymphocyte infiltrates (CD4+, CD3+, CD8+, CD45+) in treated skin” value ([10]; biopsies during topical treatment) was “increased infiltrates” and the “CD11c+ dendritic cell infiltrates in treated skin” value ([10]; treated areas) was “Increased skin infiltrates”. For the same compound, the “aggregation of lymphocytes around crystal” value [11] was “lymphocytes and dendritic cells aggregate around the crystal or pellet”, the “HPV (Response), changes in HP titers” value (HPV) was “+(50%)” and the “HPV (Response), changes in HP titers” value (HPV; CR as in Table 1) was “+(NC)”. The “peripheral lymphocyte profile (total lymphocyte count)” value (lymphoma) was “improvement”, the “T-Cell Profile (Tissue/Blood) All others” value ([12]; patient A-3) was “NC” and the “T-Cell Profile (Tissue/Blood) CD4/8” value ([12]; patient A-5) was “NC”. The “T-Cell Profile (Tissue/Blood) CD45+” value ([12]; per patient) was “(NC)”, the duration of cure [13] was “over one year” and the “response of cervical carcinoma-in-situ (biopsy)” value [13] was “disappearance of the cancer cells; also recorded: loss of malignant changes”.
